Test results as given in PubChem BioAssay (NCI).
Where “and” joins values, the source holds several entries; their conditions need not be identical. Equal values may be shown once.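 Interpolation was linear, between the two tested concentrations surrounding the appropriate level; five concentrations were tested over 48 hours in 96-well plates. Here, GI50 denotes the concentration required for 50% inhibition of growth. At the TGI there is no net growth.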

What was measured:
Assay in all cases: growth of human tumour cells (NCI), 48 h
U251 CNS = tested on: U251 CNS
MALME-3M melanoma = tested on: MALME-3M melanoma
UACC-62 melanoma = tested on: UACC-62 melanoma
A498 renal = tested on: A498 renal
RXF 393 renal = tested on: RXF 393 renal
TK-10 renal = tested on: TK-10 renal
CAKI-1 renal = tested on: CAKI-1 renal
MOLT-4 leukemia = tested on: MOLT-4 leukemia
IGROV1 ovarian = tested on: IGROV1 ovarian
UACC-257 melanoma = tested on: UACC-257 melanoma

| SMILES | TGI (U251 CNS) | TGI (MALME-3M melanoma) | TGI (UACC-62 melanoma) | TGI (A498 renal) | TGI (RXF 393 renal) | TGI (TK-10 renal) | TGI (CAKI-1 renal) | TGI (MOLT-4 leukemia) | TGI (IGROV1 ovarian) | TGI (UACC-257 melanoma) | GI50 (MALME-3M melanoma) | GI50 (UACC-257 melanoma) | GI50 (A498 renal) | GI50 (RXF 393 renal) | GI50 (CAKI-1 renal) | GI50 (MOLT-4 leukemia) | GI50 (IGROV1 ovarian) | GI50 (U251 CNS) | GI50 (UACC-62 melanoma) | GI50 (TK-10 renal) |
| --- | --- | --- | --- | --- | --- | --- | --- | --- | --- | --- | --- | --- | --- | --- | --- | --- | --- | --- | --- | --- |
| COc1ccc(N2C(=O)C(=O)N(C)C2=O)c2ccccc12 | > 10 µM | > 10 µM | > 10 µM | > 10 µM | > 10 µM | > 10 µM | > 10 µM | > 10 µM | > 10 µM | – | – | – | – | – | – | – | – | – | – | – |
| CN(CC(=O)O)CC(=O)O | > 100 µM | > 100 µM | > 100 µM | > 100 µM | > 100 µM | > 100 µM | > 100 µM | > 100 µM | > 100 µM | > 100 µM | – | – | – | – | – | – | – | – | – | – |
| CC[C@@]1(O)C(=O)OCc2c1cc1n(c2=O)Cc2cc3c(CN(C)C)c(O)ccc3nc2-1 | – | – | – | – | – | 14.2 µM and 64.8 µM and 88.7 µM | – | – | – | – | 88.1 nM and 157 nM and 390 nM | 106 nM and 67.7 nM and 297 nM | 20.5 nM and 29.9 nM | 18.8 nM and 18.2 nM and 77.5 nM | < 10 nM and 5.06 nM | < 10 nM and 3.17 nM | 231 nM and 116 nM and 392 nM | – | – | – |
| O=S(=O)(Nc1nccs1)c1ccc([As](=O)(O)O)cc1 | > 100 µM | > 100 µM | > 100 µM | > 100 µM | > 100 µM | > 100 µM | > 100 µM | > 100 µM | > 100 µM | – | – | – | – | – | – | – | – | – | – | – |
| Clc1ccc(C2CC(c3cccc(Nc4ccncc4)c3)=NN2c2ccccc2)cc1 (centres undefined) | 3.81 µM | 3.14 µM | 3.13 µM | 3.3 µM | 3.08 µM | 3.45 µM | 2.84 µM | 4.32 µM | 3.04 µM | 3.83 µM | 1580 nM | 1800 nM | 1430 nM | 1670 nM | 1500 nM | 1830 nM | 1560 nM | 1890 nM | 1710 nM | 1.83 µM |
| COC1=CC(=O)c2c(c(COC(C)=O)cn2C)C1=O | 0.734 µM | 0.117 µM | 0.283 µM | 0.586 µM | 0.309 µM | 0.207 µM | 0.22 µM | 0.653 µM | 0.443 µM | 1.43 µM | – | – | – | – | – | – | – | – | – | – |
| CC(C(=O)NCCNC(=O)CCCC(=O)N(C)O)C(=O)NCCNC(=O)CCCC(=O)N(C)O | > 100 µM | > 100 µM | > 100 µM | > 100 µM | > 100 µM | > 100 µM | > 100 µM | > 100 µM | > 100 µM | > 100 µM | – | – | – | – | – | – | – | – | – | – |
| CC(C)=CC1C(COC(=O)c2ccccc2Cl)C1(C)C (centres undefined) | 90.2 µM | 70.3 µM | > 100 µM | > 100 µM | 65.6 µM | > 100 µM | > 100 µM | > 100 µM | 57.6 µM | > 100 µM | – | – | – | – | – | – | – | – | – | – |
| CC1(CO)C(O)CCC2(C)C1C(O)CC1CC3CC12CCC3(O)CO (centres undefined) | > 225 µM | > 225 µM | > 225 µM | > 225 µM | > 225 µM | – | > 225 µM | > 141 µM | > 225 µM | > 225 µM | – | – | – | – | – | – | – | – | – | – |
| CCN(CC)CCCC(C)Nc1c2ccc(Cl)cc2nc2cc(Cl)ccc12 (centres undefined) | 14.3 µM | 25.5 µM | 16.1 µM | 21.9 µM | 13.2 µM | – | 10.7 µM | 5.31 µM | 19.5 µM | 8.87 µM | – | – | – | – | – | – | – | – | – | – |
| O=[N+]([O-])c1ccc(Cc2nc3cc4ccccc4cc3[nH]2)cc1C(F)(F)F | 37.3 µM | 25.1 µM | – | 33.5 µM | 32.1 µM | 35.8 µM | 26.7 µM | 87.7 µM | – | 29.5 µM | – | – | – | – | – | – | – | – | – | – |
| CC(=O)Nc1c2sscc-2n(C)c1=O | 2.54 µM | 2.19 µM | 5.36 µM | 3.27 µM | 3.18 µM | 4.83 µM | 3.36 µM | 0.275 µM | 4.65 µM | 2.97 µM | – | – | – | – | – | – | – | – | – | – |
| CNCCCn1c2c(c3ccc(Cl)cc3c1=O)C(=O)c1cc(OC)cnc1-2 | – | – | – | 9.07 µM | 2.84 µM | – | 1.78 µM | – | – | 11.1 µM | – | 2240 nM | 531 nM | 1300 nM | 63.1 nM | – | – | – | – | – |
| CSC1=C(SC)C(=O)c2cn(C)c(=O)cc2C1=O | 26.2 µM | 5.41 µM | 7.21 µM | 28.4 µM | 3.43 µM | 5.39 µM | – | 3.52 µM | 25.4 µM | 7.05 µM | – | – | – | – | – | – | – | – | – | – |
| CC(C)C(=O)Nc1ccc(-c2nc(-c3cccc(OCCN4CCOCC4)c3)c(-c3ccnc(Br)c3)[nH]2)cc1 | 14.5 µM | 3.3 µM | 5.71 µM | 4.74 µM | 2.91 µM | 31.3 µM | 7.01 µM | > 100 µM | > 100 µM | 5.68 µM | 1580 nM | 2370 nM | 1600 nM | 1240 nM | 2300 nM | 2310 nM | 3750 nM | 2270 nM | 2100 nM | 4.32 µM |
